{"source": "paper PMC5182151", "about": "(International journal of pharmaceutics, 2016)", "key": {"[1]": {"settings": "VD3 dispersion in water, UV light for 9.5h; ref Luo et al., 2012; cited from earlier work"}, "physchem": {"assay": "physchem", "type": "physicochemical"}, "[2]": {"assay": "Stability of VD3-TyroSphere formulations during storage", "type": "physicochemical", "settings": "in Transcutol (1mg/ml), 2 months storing at room temperature"}}, "data": [{"smiles": "C=C1CC[C@H](O)C/C1=C/C=C1\\CCC[C@]2(C)[C@@H]([C@H](C)CCCC(C)C)CC[C@@H]12", "note": "[VD3, cholecalciferol]", "values": [{"measurement": "VD3 remained after UV exposure", "setting": "[1]", "value": "about 30%"}, {"measurement": "half-life", "setting": "physchem", "value": 76, "unit": "h"}, {"measurement": "drug lost in first 24h exposure to UV light", "setting": "physchem; VD3 in methanol solution, 254 nm UV", "value": "~20", "unit": "%"}, {"measurement": "photodegradation rate constant (zero-order)", "setting": "physchem; VD3 in methanol, 254 nm UV", "value": -1.194, "unit": "µg/mL/h"}, {"measurement": "VD3 left after 134 h UV exposure", "setting": "physchem; methanol formulation, 254 nm UV", "value": 21, "unit": "%"}, {"measurement": "VD3 detected", "setting": "[2]", "value": 2, "unit": "%"}]}]}
